Measurements as given in US20240318141A1, “MATURATION AGENT” (Orizuru Therapeutics, Inc., priority 2021, published 2024).
“And” between values parts separate entries of the source, which are not always exact repeats. Equal entries are not always repeated.

Test system: non-endocrine cells in insulin-producing cell population (QHJI-114s04 iPS cell line)
Test: Docetaxel treatment of cell population comprising insulin-producing cells, then extended culture in basal medium containing EGF (Example 4)
Type: cell-based, human
Settings: for proportions of PDX1+/CHGA− and PDX1−/CHGA− cells after extended culture involving EGF: with respect to control cell population
From the text: The differentiation of a QHJI-114s04 iPS cell line into an insulin-producing cell population was induced by the three-dimensional culture method using a bioreactor according to steps 1) to 6) described above and the previous report (Nature Biotechnology 2014; 32: 1121-1133). Specifically, the iPS cells were subjected to the first culture in a medium (DMEM/1% B-27 (INS+)/Penicillin Streptomycin/dimethyl sulfoxide) containing differentiation-inducing factors (GSK3β inhibitor, ROCK inhibitor and low dose of activin A) under conditions causing action of insulin, and subsequently subjected to the second culture in a medium (DMEM/1% B-27 (INS−)/Penicillin Streptomycin/dimethyl sulfoxide) containing a differentiation-inducing factor (low dose of activin A) under conditions causing no action of insulin to obtain a definitive endoderm cell population. […] The exchange from the bioreactor to the multiwell plate was carried out in step 6).
Marker protein expression (PDX1 and CHGA) in each cell population before the start of and after the completion of extended culture was measured by flow cytometry. Marker protein expression (NKX6.1, C-peptide (insulin), PDX1, and CHGA) in the cell population obtained 7 days after the start of step 6) was also measured by flow cytometry. Respective samples were collected by sampling from separate culture containers. The number of cells was measured in an automatic cell counter at the time of sample preparation for flow cytometry, and the total number of cells per well of the multiwell plate was calculated.

[1] = +Docetaxel 4 days from day 7 (1 μM), s6d11
[2] = +Docetaxel 4 days from day 7, after extended culture, EGF absent
[3] = +Docetaxel 4 days from day 7, after extended culture, EGF present
[4] = +Docetaxel 7 days from day 4 (1 μM), s6d11
[5] = +Docetaxel 7 days from day 4, after extended culture, EGF absent
[6] = +Docetaxel 7 days from day 4, after extended culture, EGF present

SMILES: CC(=O)O[C@@]12CO[C@@H]1C[C@H](O)[C@@]1(C)C(=O)[C@H](O)C3=C(C)[C@@H](OC(=O)[C@H](O)[C@@H](NC(=O)OC(C)(C)C)c4ccccc4)C[C@@](O)([C@@H](OC(=O)c4ccccc4)[C@H]21)C3(C)C [Docetaxel, (−)-(1S,2S,3R,4S,5R,7S,8S,10R,13S)-4-Acetoxy-2-benzoyloxy-5,20-epoxy-1,7,10-trihydroxy-9-oxotax-11-en-13-yl (2R,3S)-3-tert-butoxycarbonylamido-2-hydroxy-3-phenylpropionate]
- population exhibiting marked increase by extended culture involving EGF (table footnote) (+Docetaxel 4 days from day 7): No population exhibited marked increase by extended culture involving EGF
- The number of cells CHGA+ [1]: 177 ×10^4 cells/well
- The number of cells PDX+/CHGA− [1]: 0.7 ×10^4 cells/well
- The number of cells PDX−/CHGA− [1]: 0.9 ×10^4 cells/well
- Total number of cells [1]: 178 ×10^4 cells/well
- The number of cells CHGA+ [2]: 132 ×10^4 cells/well
- The number of cells PDX+/CHGA− [2]: 1.5 ×10^4 cells/well
- The number of cells PDX−/CHGA− [2]: 6.3 ×10^4 cells/well
- Total number of cells [2]: 140 ×10^4 cells/well
- The number of cells CHGA+ [3]: 144 ×10^4 cells/well and 133 ×10^4 cells/well and 147 ×10^4 cells/well
- The number of cells PDX+/CHGA− [3]: 1.1 ×10^4 cells/well and 1.3 ×10^4 cells/well and 1.2 ×10^4 cells/well
- The number of cells PDX−/CHGA− [3]: 5.6 ×10^4 cells/well and 6.6 ×10^4 cells/well and 5.9 ×10^4 cells/well
- Total number of cells [3]: 151 ×10^4 cells/well and 141 ×10^4 cells/well and 154 ×10^4 cells/well
- proportions of PDX1+/CHGA− and PDX1−/CHGA− cells after extended culture involving EGF (+Docetaxel 4 days from day 7): drastically decreased
- population exhibiting marked increase by extended culture involving EGF (table footnote) (+Docetaxel 7 days from day 4): No population exhibited marked increase by extended culture involving EGF
- The number of cells CHGA+ [4]: 209 ×10^4 cells/well
- The number of cells PDX+/CHGA− [4]: 0.4 ×10^4 cells/well
- The number of cells PDX−/CHGA− [4]: 0.8 ×10^4 cells/well
- Total number of cells [4]: 210 ×10^4 cells/well
- The number of cells CHGA+ [5]: 126 ×10^4 cells/well
- The number of cells PDX+/CHGA− [5]: 1.5 ×10^4 cells/well
- The number of cells PDX−/CHGA− [5]: 5.0 ×10^4 cells/well
- Total number of cells [5]: 132 ×10^4 cells/well
- The number of cells CHGA+ [6]: 132 ×10^4 cells/well and 127 ×10^4 cells/well and 159 ×10^4 cells/well
- The number of cells PDX+/CHGA− [6]: 0.8 ×10^4 cells/well and 1.5 ×10^4 cells/well
- The number of cells PDX−/CHGA− [6]: 4.7 ×10^4 cells/well and 2.9 ×10^4 cells/well and 4.8 ×10^4 cells/well
- Total number of cells [6]: 138 ×10^4 cells/well and 165 ×10^4 cells/well
- proportions of PDX1+/CHGA− and PDX1−/CHGA− cells after extended culture involving EGF (+Docetaxel 7 days from day 4): drastically decreased
